This is an account of results in ChEMBL document CHEMBL1143568, “A new class of selective myocardial calcium channel modulators. 2. Role of the acetal chain in oxadiazol-3-one derivatives” (J Med Chem, 2005).

SMILES strings stand for the structures.

The species entered for experiment [1] is Cavia porcellus. Nature of the experiment: Compound was tested for percent change in heart rate in isolated guinea pig atrium.
The species named for experiment [2] is Cavia porcellus. The experiment can be described thus: Negative inotropic potency as decrease in the developed tension in isolated guinea pig left artium.
The species entered for experiment [3] is Cavia porcellus. The experiment can be described thus: Compound was tested for percent change in coronary perfusion pressure in isolated guinea pig atrium.
The species named for experiment [4] is Cavia porcellus. Nature of the experiment: Compound was tested for percent change in atrioventricular conduction time in isolated guinea pig atrium.
The species named for experiment [5] is Cavia porcellus. The experiment can be described thus: Negative inotropic activity as decrease in the developed tension in isolated guinea pig left artium at 10E-6 M (n=4-6).
For experiment [6], the species on record is Cavia porcellus. The experiment can be described thus: Compound was tested for percent change in maximal rate of the rise in left ventricular pressure in isolated guinea pig atrium.
Experiment [7] is filed under the species Cavia porcellus. The experiment can be described thus: Vasorelaxant activity determined by percentage inhibition of calcium-induced contraction on K+ depolarized guinea pig aortic strip at 5x10E-5 M.
Experiment [8] is filed under the species Cavia porcellus. The experiment can be described thus: Negative chronotropic activity was determined as percent decrease in the artial rate in spontaneously beating guinea pig artium at 10E-5 M (n=6-8).
For experiment [9], the species on record is Cavia porcellus. The experiment can be described thus: Negative inotropic activity as decrease in the developed tension in isolated guinea pig left artium at 5x10E-5 M (n=4-6).
For experiment [10], the species on record is Cavia porcellus. Nature of the experiment: Vasorelaxant activity determined by percentage inhibition of calcium-induced contraction on K+ depolarized guinea pig aortic strip.
Experiment [11] is filed under the species Cavia porcellus. Nature of the experiment: Negative chronotropic activity was determined as percent decrease in the artial rate in spontaneously beating guinea pig artium at 5x10E-5 M (n=6-8).
The species named for experiment [12] is Cavia porcellus. Nature of the experiment: Negative inotropic potency as coronary perfusion pressure in isolated guinea pig atrium. The conditions noted are these: Cardiac atrium.
The species named for experiment [13] is Cavia porcellus. The experiment can be described thus: Negative inotropic potency as maximal rate of the rise in left ventricular pressure in isolated guinea pig atrium. The conditions noted are these: Cardiac atrium.
Experiment [14] is filed under the species Cavia porcellus. Nature of the experiment: Negative inotropic activity as decrease in the developed tension in isolated guinea pig left artium at 10E-5 M (n=4-6).
The species entered for experiment [15] is Cavia porcellus. Nature of the experiment: Negative inotropic potency is determined by decrease in the developed tension on isolated left ventricular papillary muscle (n=5-7). The conditions noted are these: Muscle tissue.
For experiment [16], the species on record is Cavia porcellus. The experiment can be described thus: Selectivity ratio against negative inotropic potency on left atrium to that of negative inotropic potency on left ventricular papillary muscle in guinea pig.
For experiment [17], the species on record is Cavia porcellus. The experiment can be described thus: Negative inotropic activity as decrease in the developed tension in isolated guinea pig left artium at 5x10E-5 M (n=4-6). This is another data set of the same source.
The species entered for experiment [18] is Cavia porcellus. Nature of the experiment: Negative inotropic activity as decrease in the developed tension in isolated guinea pig left artium at 5x10E-6 M (n=4-6).
The species named for experiment [19] is Cavia porcellus. The experiment can be described thus: Negative chronotropic activity was determined as percent decrease in the artial rate in spontaneously beating guinea pig artium at5x10E-5 M (n=6-8).
The species entered for experiment [20] is Cavia porcellus. The experiment can be described thus: Negative inotropic activity as decrease in the developed tension in isolated guinea pig left artium at 10E-5 M (n=4-6). The source holds these as a separate data set.
Experiment [21] is filed under the species Cavia porcellus. The experiment can be described thus: Negative inotropic activity as decrease in the developed tension in isolated guinea pig left artium 10E-6 M (n=4-6).
For experiment [22], the species on record is Cavia porcellus. Nature of the experiment: Negative inotropic activity as decrease in the developed tension in isolated guinea pig left artium 5x10E-5 M (n=4-6).

Consider `CCO[C@@]1(c2ccc(Br)cc2)SC=C(C)n2c1noc2=O`, for which the Change in experiment [1] is -9%; in [3], 32%; in experiment [4] it was -3%; in experiment [6], -14%. Further, the EC50 in experiment [2] was found to be 40 nM. The Decrease in experiment [5] is 77%; in experiment [7] it was 19%; in experiment [8], 5%.

Take `CCCCCCCCCCCCCCCO[C@@]1(c2ccc(Br)cc2)SC=C(C)n2c1noc2=O`: the EC50 in experiment [2] was 420 nM. The Decrease in experiment [9] came to 75%; in experiment [10], 4%; in [11] it was 12%.

In the case of `COc1ccc([C@@H]2Sc3ccccc3N(CCN(C)C)C(=O)[C@@H]2OC(C)=O)cc1` [DILTIAZEM], the Change is reported as -25% in experiment [1], -51% in [3], 34% in [4] and -59% in [6]. Moreover, the EC50 is 21.9 nM in [12], 790 nM in experiment [2], 9.33 nM in experiment [13] and 1610 nM in experiment [15]. Moreover, the values for the Decrease in [14], in experiment [7] and in experiment [11] were 78%, 88% and 94%, respectively. Also, the Selectivity in [16] is 2.04.

In the case of `CCCCCOC1(c2ccc(Cl)cc2)SC=C(C)n2c1noc2=O` (stereo unspecified), the results for the Decrease in [17], in [7] and in experiment [11] were 45%, 15% and 14%, respectively.

On to `CC1=CS[C@@](OC(C)C)(c2ccc(Cl)cc2)c2noc(=O)n21`, for which the response in experiment [2] was half-maximal at 220 nM (EC50). Besides, the Decrease in experiment [18] was 64%; in experiment [7], 10%; in experiment [11], 10%.

Compound `CCCOC1(c2ccc(Br)cc2)SC=C(C)n2c1noc2=O` (stereo unspecified) registered an EC50 in experiment [2] of 410 nM. For the same compound, the Decrease in [9] is reported as 69%; in experiment [7] it was 14%; in experiment [19] it was 12%.

`CC1=CSC(OC(C)C)(c2ccc(Br)cc2)c2noc(=O)n21` (stereo unspecified): the EC50 in experiment [2] was found to be 270 nM. For the same compound, the Decrease in experiment [20] was found to be 58%; in [7], 18%; in experiment [11], 4%.

With `COC1(c2ccc(Br)cc2)SC=C(C)n2c1noc2=O` (stereo unspecified), the Decrease in [21] turned out to be 38%; in experiment [7] it was 13%; in experiment [8], 9%.

In turn, `CCCCCCCCCCCCOC1(c2ccc(Cl)cc2)SC=C(C)n2c1noc2=O` (stereo unspecified) registered an EC50 in [2] of 870 nM. In addition, the Decrease is recorded as 56% in experiment [22], 5% in experiment [7] and 5% in experiment [11].
